{"source": "patent US11819500B2", "about": "“T-cell regulation in t-cell mediated diseases by reducing pathogenic function of TH17 in a human subject through treatment with a nitroxide” (priority 2016, dated 2023)", "key": {"Perp [1]": {"tested_on": "Perp", "assay": "Level of Perp after Tempol treatment of a human subject", "assay_type": "in vivo", "details": "70-kilogram human subject with a disorder such as a desmosome-associated disorder; 1500 mg per day for 180 days", "method": "A human subject is administered a dose of 1500 mg of Tempol (or a nitroxide antioxidant) per day for 180 days. The human subject is a 70-kilogram human subject. The human subject may have a disorder (such as a desmosome-associated disorder, which can be associated or characterized by damaged epithelial tissue). The human subject can be identified. The dose may be administered in a single dose, or may be administered as a number of smaller doses over a 24-hour period: for example, three 500-mg doses at eight-hour intervals. Following treatment, the level (e.g., the serum level) of Perp is increased, which can in turn increase desmosome function (e.g., characterized by epithelial integrity)"}, "Bri3 [2]": {"tested_on": "Bri3", "assay": "Serum level of Bri3 after Tempol treatment of a human subject", "assay_type": "in vivo", "details": "human subject with or at risk of a neurodegenerative disease (e.g., Alzheimer's Disease); 1500 mg per day for 180 days", "method": "A human subject is administered a dose of 1500 mg of Tempol (or a nitroxide antioxidant) per day for 180 days. The human subject may be a 70-kilogram human subject over the age of 65. The human subject may be at risk of developing a neurodegenerative disease (e.g., Alzheimer's Disease), may have symptoms of a neurodegenerative disease, and/or may have a neurodegenerative disease. The risk, the symptoms, or the neurodegenerative disease may be caused by decreased expression level of Bri3. The human subject can be identified. The dose may be administered in a single dose, or may be administered as a number of smaller doses over a 24-hour period: for example, three 500-mg doses at eight-hour intervals. Following treatment, the serum level of Bri3 is increased. Increased Bri3 expression can inhibit amyloid precursor protein (APP) processing and amyloid plaque deposition, thus suppressing or reversing development of the neurodegenerative disease."}, "Cd5l [3]": {"tested_on": "Cd5l", "assay": "Serum level of Cd5l after Tempol treatment of a human subject", "assay_type": "in vivo", "details": "1500 mg per day for 180 days", "method": "A human subject is administered a dose of 1500 mg of Tempol (or a nitroxide antioxidant) per day for 180 days. The human subject may be a 70-kilogram human subject. The human subject may be at risk of having pathogenic T-helper cell activity, may have symptoms of pathogenic T-helper cell activity, and/or may have a disease (e.g., an autoimmune disease) associated with pathogenic T-helper cell activity (e.g., pathogenic T-helper 17 cell activity). The autoimmune disease may be mediated by IL-23 as an effector molecule. The human subject can be identified. The dose may be administered in a single dose, or may be administered as a number of smaller doses over a 24-hour period: for example, three 500-mg doses at eight-hour intervals. Following treatment, the serum level of Cd5l is increased. Increased Cd5l expression can alter lipid biosynthesis within the T-helper cell, thus suppressing the pathogenic T-helper cell activity and/or reversing the effect of the pathogenic T-helper cell activity.\nA human subject is administered a dose of 1500 mg of Tempol (or a nitroxide antioxidant) per day for 180 days. The human subject may be a 70-kilogram human subject. The human subject may be at risk of developing an autoimmune disease, may have symptoms of an autoimmune disease, and/or may have an autoimmune disease. The autoimmune disease may be mediated by IL-23 as an effector molecule. […]"}, "[4]": {"tested_on": "Cd5l, Perp, Unc5b, Bag5 or Bri3", "details": "human, in vivo"}, "Unc5b": {"tested_on": "Unc5b", "assay": "Gene expression in cardiac tissue after Tempol administration (chip-based microarray)", "assay_type": "in vivo", "details": "mice aged 31 months, Tempol 5 mg/g of food from 14 to 31 months, control mice 103", "method": "(§1) To assess the effects of Tempol on gene expression, Tempol was administered to experimental mice at a dose of 5 mg/g of food from 14 months to 31 months after birth. Mice receiving the same food without the addition of Tempol were used as a negative control. At the age of 31 months, the experimental animals were sacrificed and the hearts were surgically removed. The expression of a broad spectrum of genes in the cardiac tissue was assessed using chip-based microarray technology. Such chips are well known in the art and are widely used to assess gene expression."}, "Cd5l [5]": {"tested_on": "Cd5l", "assay": "Gene expression in cardiac tissue after Tempol administration (chip-based microarray)", "assay_type": "in vivo", "details": "mice aged 31 months, Tempol 5 mg/g of food from 14 to 31 months, control mice 150", "method": "as §1"}, "Bag5": {"tested_on": "Bag5", "assay": "Gene expression in cardiac tissue after Tempol administration (chip-based microarray)", "assay_type": "in vivo", "details": "mice aged 31 months, Tempol 5 mg/g of food from 14 to 31 months, control mice 300", "method": "as §1"}, "Bri3 [6]": {"tested_on": "Bri3", "assay": "Gene expression in cardiac tissue after Tempol administration (chip-based microarray)", "assay_type": "in vivo", "details": "mice aged 31 months, Tempol 5 mg/g of food from 14 to 31 months, control mice 1549", "method": "as §1"}, "Perp [7]": {"tested_on": "Perp", "assay": "Gene expression in cardiac tissue after Tempol administration (chip-based microarray)", "assay_type": "in vivo", "details": "mice aged 31 months, Tempol 5 mg/g of food from 14 to 31 months, control mice 49", "method": "as §1"}}}
{"compound": "CC1(C)CC(O)CC(C)(C)N1[O]", "note": "[Tempol, 4-hydroxy-2,2,6,6-tetramethylpiperidine-1-oxyl]", "values": [{"measurement": "level (e.g., the serum level) of Perp", "setting": "Perp [1]", "value": "increased"}, {"measurement": "serum level of Bri3", "setting": "Bri3 [2]", "value": "increased"}, {"measurement": "serum level of Cd5l", "setting": "Cd5l [3]; human subject with or at risk of developing an autoimmune disease", "value": "increased"}, {"measurement": "serum level of Cd5l", "setting": "Cd5l [3]; human subject with or at risk of pathogenic T-helper cell activity", "value": "increased"}, {"measurement": "serum level of Cd5l, Perp, Unc5b, Bag5 or Bri3", "setting": "[4]", "value": "increased"}, {"measurement": "Unc5b expression, Tempol-treated mice", "setting": "Unc5b", "value": 172}, {"measurement": "Cd5l expression, Tempol-treated mice", "setting": "Cd5l [5]", "value": 406}, {"measurement": "Bag5 expression, Tempol-treated mice", "setting": "Bag5", "value": 370}, {"measurement": "Bri3 expression, Tempol-treated mice", "setting": "Bri3 [6]", "value": 1835}, {"measurement": "Perp expression, Tempol-treated mice", "setting": "Perp [7]", "value": 82}]}
